Results reported in patent publication US12577231B2, “Androgen receptor PROTACS” (GlaxoSmithKline Intellectual Property Development Limited, priority 2023, dated 2026).

Target: T1, Androgen Receptor protein in human LnCaP cells (Homo sapiens, UniProt P10275, T878A)
T1 construct: the AR gene was modified, using CRISPR/Cas9 editing, so the expressed AR protein included an 11 amino acid HiBiT tag; endogenous in cells; host or cells: clonal LnCaP derived cell line, endogenous AR gene edited by CRISPR/Cas9
T1 sequence (P10275 1-920 T878A): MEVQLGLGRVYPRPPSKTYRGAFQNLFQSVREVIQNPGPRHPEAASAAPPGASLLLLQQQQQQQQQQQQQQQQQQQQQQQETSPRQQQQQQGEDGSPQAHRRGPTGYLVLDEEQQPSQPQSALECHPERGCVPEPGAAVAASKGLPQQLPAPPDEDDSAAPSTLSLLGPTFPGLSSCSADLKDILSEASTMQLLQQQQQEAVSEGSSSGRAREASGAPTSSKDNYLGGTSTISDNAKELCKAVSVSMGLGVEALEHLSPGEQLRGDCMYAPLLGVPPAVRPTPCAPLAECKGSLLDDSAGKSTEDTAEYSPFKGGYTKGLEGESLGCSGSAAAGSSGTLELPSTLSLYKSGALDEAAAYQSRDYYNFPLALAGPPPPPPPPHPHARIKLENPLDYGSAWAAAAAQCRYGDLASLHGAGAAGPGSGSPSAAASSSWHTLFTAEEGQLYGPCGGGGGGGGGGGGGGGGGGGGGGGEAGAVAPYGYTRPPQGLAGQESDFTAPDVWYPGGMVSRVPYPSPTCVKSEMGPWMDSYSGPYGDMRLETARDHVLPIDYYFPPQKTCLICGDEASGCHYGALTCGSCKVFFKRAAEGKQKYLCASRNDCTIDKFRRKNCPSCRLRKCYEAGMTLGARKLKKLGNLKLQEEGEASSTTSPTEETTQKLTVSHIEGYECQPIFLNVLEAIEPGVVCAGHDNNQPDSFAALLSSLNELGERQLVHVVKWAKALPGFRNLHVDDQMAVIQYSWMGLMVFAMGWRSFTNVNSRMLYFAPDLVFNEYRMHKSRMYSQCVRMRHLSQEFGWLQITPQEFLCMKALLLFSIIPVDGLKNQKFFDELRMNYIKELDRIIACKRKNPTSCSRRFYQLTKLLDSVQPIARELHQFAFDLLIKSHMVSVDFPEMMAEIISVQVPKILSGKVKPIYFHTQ
Test: Androgen Receptor Degradation Assay (Nano-Glo HiBiT, LnCaP cells)
Format: cell-based
Settings: 18 h, HiBiT-tagged AR LnCaP cells, 18 h incubation, fitted curve asymptote maximum of degradation, read-out: mean asymptote max
Protocol: Degradation of Androgen Receptor protein in human LnCaP cells treated with PROTACs was quantified using the Nano-Glo® HiBiT Lytic Detection System (Promega) in 384 well assay plate format. A clonal LnCaP derived cell line was first established in which the AR gene was modified, using CRISPR/Cas9 editing, so the expressed AR protein included an 11 amino acid HiBiT tag at its amino-terminus. 10 mM DMSO stock solutions of PROTACs were prepared and diluted across an 11 concentration, 3 fold increment range, and 25 nL dispensed into a white opaque bottomed 384 well assay plate (Thermofisher) using an acoustic ECHO dispenser (Labcyte). Cells were grown in cell culture medium (RPMI 1640 supplemented with 15% FBS, penicillin 50U/mL and streptomycin 50 ug/mL (Thermofisher)). For the assay, cells were detached from flask and resuspended with assay medium (FluoroBrite™ DMEM supplemented with 10% heat inactivated FBS, penicillin 50U/mL and streptomycin 50 ug/mL (Thermofisher)). The cell suspension was centrifuged at 400 g for 5 min and the pellet resuspended in assay medium. 25 μL of cell suspension containing 10,000 cells was dispensed into each well of the assay plate containing a serial dilution of test compounds, which was then incubated for 18 h at 37° C./5% CO2. Control wells were included on each assay plate, with assay medium without cells being the no AR remaining 100% effect control, and cells treated with DMSO vehicle only, without PROTAC, the 0% effect control. 25 μL of Nano-Glo® HiBiT lysis buffer supplemented with LgBiT protein and Nano-Glo® substrate (Promega) was added to each well and the plate shaken at 500 rpm for 10 min at room temperature. The intensity of luminescence was measured using a PHERAstar microplate reader (BMG Labtech) and the % AR protein remaining in each well calculated by normalising the raw luminescence value to the above control wells. Parameters corresponding to the potency and efficacy estimates of the PROTACs were obtained from these normalised luminescence values using software (IDBS ActivityBase). These included the DC50 (concentration at which 50% of protein was degraded in M) and the Dmax (maximal degradation, in %) estimates. Two versions of the DC50, called relative DC50 and absolute DC50, were generated. These are the inflection point of a fitted 4 parameter sigmoidal response curve and the interpolated concentration of PROTAC corresponding to 50% of the protein being degraded, respectively. The corresponding pDC50 is reported as −log10(relative […]). The Dmax parameter was the maximum experimentally observed degradation and the asymptote max parameter the fitted response curve asymptote maximum.

Compound	Dmax
CC1(C)[C@H](NC(=O)c2ccc(N3CCC(CN4CCC(n5ncc6c(N7CCC(=O)NC7=O)cc(F)cc65)CC4)CC3)c(F)c2)C(C)(C)[C@H]1Oc1ccc(C#N)c2ncccc12 [Example 38, N-((1r,3r)-3-((8-Cyanoquinolin-5-yl)oxy)-2,2,4,4-tetramethylcyclobutyl)-4-(4-((4-(4-(2,4-dioxotetrahydropyrimidin-1(2H)-yl)-6-fluoro-1H-indazol-1-yl)piperidin-1-yl)methyl)piperidin-1-yl)-3-fluorobenzamide]	≥ 50%
CC1(C)[C@H](NC(=O)c2ccc(N3CCC(CN4CCC(n5ncc6c(N7CCC(=O)NC7=O)cc(Cl)cc65)CC4)CC3)c(F)c2)C(C)(C)[C@H]1Oc1ccc(C#N)c2ncccc12 [Example 41, 4-(4-((4-(6-Chloro-4-(2,4-dioxotetrahydropyrimidin-1(2H)-yl)-1H-indazol-1-yl)piperidin-1-yl)methyl)piperidin-1-yl)-/-((1r,3r)-3-((8-cyanoquinolin-5-yl)oxy)-2,2,4,4-tetramethylcyclobutyl)-3-fluorobenzamide]	≥ 50%
CC1(C)[C@H](NC(=O)c2ccc(N3CCC(CN4CCC(n5ncc6c(N7CCC(=O)NC7=O)cc(C(F)(F)F)cc65)CC4)CC3)c(F)c2)C(C)(C)[C@H]1Oc1ccc(C#N)c2ncccc12 [Example 42, N-((1r,3r)-3-((8-Cyanoquinolin-5-yl)oxy)-2,2,4,4-tetramethylcyclobutyl)-4-(4-((4-(4-(2,4-dioxotetrahydropyrimidin-1(2H)-yl)-6-(trifluoromethyl)-1H-indazol-1-yl)piperidin-1-yl)methyl)piperidin-1-yl)-3-fluorobenzamide]	≥ 50%
CC1(C)[C@H](NC(=O)c2ccc(N3CCC(CN4CCC(n5ncc6c(N7CCC(=O)NC7=O)cccc65)CC4)CC3)c(Cl)c2)C(C)(C)[C@H]1Oc1ccc(C#N)c2ncccc12 [Example 44, 3-Chloro-N-((1r,3r)-3-((8-cyanoquinolin-5-yl)oxy)-2,2,4,4-tetramethylcyclobutyl)-4-(4-((4-(4-(2,4-dioxotetrahydropyrimidin-1(2H)-yl)-1H-indazol-1-yl)piperidin-1-yl)methyl)piperidin-1-yl)benzamide]	≥ 50%
CC1(C)[C@H](NC(=O)c2ccc(N3CCC(CN4CC[C@@H](n5ncc6c(N7CCC(=O)NC7=O)cccc65)[C@@H](F)C4)CC3)c(F)c2)C(C)(C)[C@H]1Oc1ccc(C#N)c2ncccc12 [Example 45, N-((1r,3r)-3-((8-Cyanoquinolin-5-yl)oxy)-2,2,4,4-tetramethylcyclobutyl)-4-(4-(((35,4R)-4-(4-(2,4-dioxotetrahydropyrimidin-1(2H)-yl)-1H-indazol-1-yl)-3-fluoropiperidin-1-yl)methyl)piperidin-1-yl)-3-fluorobenzamide]	≥ 50%
CC1(C)[C@H](NC(=O)c2ccc(N3CCC(CN4CC[C@H](n5ncc6c(N7CCC(=O)NC7=O)cccc65)[C@H](F)C4)CC3)c(F)c2)C(C)(C)[C@H]1Oc1ccc(C#N)c2ncccc12 [Example 46, N-((1r,3r)-3-((8-Cyanoquinolin-5-yl)oxy)-2,2,4,4-tetramethylcyclobutyl)-4-(4-(((3R,4S)-4-(4-(2,4-dioxotetrahydropyrimidin-1(2H)-yl)-1H-indazol-1-yl)-3-fluoropiperidin-1-yl)methyl)piperidin-1-yl)-3-fluorobenzamide]	≥ 50%
CC1(C)[C@H](NC(=O)c2ccc(N3CCC(O)(CN4CCC(n5ncc6c(N7CCC(=O)NC7=O)cccc65)CC4)CC3)c(F)c2)C(C)(C)[C@H]1Oc1ccc(C#N)c2ncccc12 [Example 48, N-((1r,3r)-3-((8-Cyanoquinolin-5-yl)oxy)-2,2,4,4-tetramethylcyclobutyl)-4-(4-((4-(4-(2,4-dioxotetrahydropyrimidin-1(2H)-yl)-1H-indazol-1-yl)piperidin-1-yl)methyl)-4-hydroxypiperidin-1-yl)-3-fluorobenzamide]	≥ 50%
CC1(C)[C@H](NC(=O)c2ccc(N3CCC(CN4CCC(n5ncc6c(N7CCC(=O)NC7=O)c(F)ccc65)CC4)CC3)c(F)c2)C(C)(C)[C@H]1Oc1ccc(C#N)c2ncccc12 [Example 50, N-((1r,3r)-3-((8-Cyanoquinolin-5-yl)oxy)-2,2,4,4-tetramethylcyclobutyl)-4-(4-((4-(4-(2,4-dioxotetrahydropyrimidin-1(2H)-yl)-5-fluoro-1H-indazol-1-yl)piperidin-1-yl)methyl)piperidin-1-yl)-3-fluorobenzamide]	≥ 50%

Next, values leading:

Dmax	Compound
≥ 50%	CC1(C)[C@H](NC(=O)c2ccc(N3CCC(CN4CCC(n5ncc6c(N7CCC(=O)NC7=O)nccc65)CC4)CC3)c(F)c2)C(C)(C)[C@H]1Oc1ccc(C#N)c2ncccc12 [Example 39, N-((1r,3r)-3-((8-Cyanoquinolin-5-yl)oxy)-2,2,4,4-tetramethylcyclobutyl)-4-(4-((4-(4-(2,4-dioxotetrahydropyrimidin-1(2H)-yl)-1H-pyrazolo[4,3-c]pyridin-1-yl)piperidin-1-yl)methyl)piperidin-1-yl)-3-fluorobenzamide]
≥ 50%	CC1(C)[C@H](NC(=O)c2ccc(N3CCC(CN4CCC(n5ncc6c(N7CCC(=O)NC7=O)ccnc65)CC4)CC3)c(F)c2)C(C)(C)[C@H]1Oc1ccc(C#N)c2ncccc12 [Example 40, N-((1r,3r)-3-((8-Cyanoquinolin-5-yl)oxy)-2,2,4,4-tetramethylcyclobutyl)-4-(4-((4-(4-(2,4-dioxotetrahydropyrimidin-1(2H)-yl)-1H-pyrazolo[3,4-b]pyridin-1-yl)piperidin-1-yl)methyl)piperidin-1-yl)-3-fluorobenzamide]
≥ 50%	CC1(C)[C@H](NC(=O)c2ccc(N3CCC(CN4CCC(n5ccc6c(N7CCC(=O)NC7=O)ncnc65)CC4)CC3)c(F)c2)C(C)(C)[C@H]1Oc1ccc(C#N)c2ncccc12 [Example 47, N-((1r,3r)-3-((8-Cyanoquinolin-5-yl)oxy)-2,2,4,4-tetramethylcyclobutyl)-4-(4-((4-(4-(2,4-dioxotetrahydropyrimidin-1(2H)-yl)-7H-pyrrolo[2,3-d]pyrimidin-7-yl)piperidin-1-yl)methyl)piperidin-1-yl)-3-fluorobenzamide]
≥ 50%	CC1(C)[C@H](NC(=O)c2ccc(N3CCC(CN4CCC(n5ccc6c(N7CCC(=O)NC7=O)c(F)ccc65)CC4)CC3)c(F)c2)C(C)(C)[C@H]1Oc1ccc(C#N)c2ncccc12 [Example 51, N-((1r,3r)-3-((8-Cyanoquinolin-5-yl)oxy)-2,2,4,4-tetramethylcyclobutyl)-4-(4-((4-(4-(2,4-dioxotetrahydropyrimidin-1(2H)-yl)-5-fluoro-1H-indol-1-yl)piperidin-1-yl)methyl)piperidin-1-yl)-3-fluorobenzamide]
